# Tests used:
# [1] = Hemolytic activity in human erythrocytes assessed as release of hemoglobin at 0.19 mg/mL after 60 mins relative to control; assay type: ADME, cell-based, Erythrocyte; details: read-out: Activity
# [2] = Hemolytic activity in human erythrocytes assessed as release of hemoglobin after 60 mins; assay type: ADME, cell-based, Erythrocyte; details: 1 h; for IC50: Homo sapiens, Erythrocyte; for Activity: human, erythrocyte
# [3] = Hemolytic activity in human erythrocytes assessed as release of hemoglobin at 0.67 mg/mL after 60 mins relative to control; assay type: ADME, cell-based, Erythrocyte; details: read-out: Activity
# [4] = Hemolytic activity in human erythrocytes assessed as increase in cell permeability up to 1 mg/mL after 60 mins; assay type: ADME, cell-based; details: erythrocyte, 1 h
# [5] = Hemolytic activity in human erythrocytes assessed as release of hemoglobin at 0.00001 mg/mL after 60 mins relative to control; assay type: ADME, cell-based, Erythrocyte; details: read-out: Activity
# [6] = Hemolytic activity in human erythrocytes assessed as induction of echinocytic shape alteration at hemolysis start concentration after 60 mins by SEM analysis; assay type: cell-based; details: erythrocyte, 1 h
# [7] = Hemolytic activity in human erythrocytes assessed as induction of spheroechinocytic shape alteration at hemolysis start concentration after 60 mins by SEM analysis; assay type: cell-based; details: erythrocyte, 1 h
# [8] = Hemolytic activity in human erythrocytes assessed as release of hemoglobin at 0.63 mg/mL after 60 mins relative to control; assay type: ADME, cell-based, Erythrocyte; details: read-out: Activity
# [9] = Hemolytic activity in human erythrocytes assessed as induction of stomatocytic shape alteration at hemolysis start concentration after 60 mins by SEM analysis; assay type: cell-based; details: erythrocyte, 1 h
# [10] = Hemolytic activity in human erythrocytes assessed as release of hemoglobin at 0.006 mg/mL after 60 mins relative to control; assay type: ADME, cell-based, Erythrocyte; details: read-out: Activity
# [11] = Hemolytic activity in human erythrocytes assessed as release of hemoglobin at 0.007 mg/mL after 60 mins relative to control
# [12] = Hemolytic activity in human erythrocytes assessed as discocytic shape up to 1 mg/mL after 60 mins by SEM analysis; assay type: ADME, cell-based; details: erythrocyte, 1 h
# [13] = Hemolytic activity in human erythrocytes assessed as release of hemoglobin at 0.75 mg/mL after 60 mins relative to control; assay type: ADME, cell-based, Erythrocyte; details: read-out: Activity
# [14] = Hemolytic activity in human erythrocytes assessed as release of hemoglobin at 0.0001 mg/mL after 60 mins relative to control; assay type: ADME, cell-based, Erythrocyte; details: read-out: Activity
# [15] = Hemolytic activity in human erythrocytes assessed as release of hemoglobin at 0.17 mg/mL after 60 mins relative to control; assay type: ADME, cell-based, Erythrocyte; details: read-out: Activity
Compound,IC50 [2],Activity [2],Activity [4],Activity [9],other results
CN1C(=[Se])CC[C@H]1c1cccnc1.C[C@H](CCC(=O)O)[C@H]1CC[C@H]2[C@@H]3CC[C@@H]4C[C@H](O)CC[C@]4(C)[C@H]3C[C@H](O)[C@]12C,610 µg/mL,Dose-dependent effect,,,"hemolysis at 1 h, 0.19 mg/mL [1]: 5%"
CN1C(=S)CC[C@H]1c1cccnc1.C[C@H](CCC(=O)O)[C@H]1CC[C@H]2[C@@H]3CC[C@@H]4C[C@H](O)CC[C@]4(C)[C@H]3C[C@H](O)[C@]12C,,Dose-dependent effect,Non-toxic,,"hemolysis at 1 h, 0.67 mg/mL [3]: 5%"
CN1C(=S)CC[C@H]1c1cccnc1.C[C@H](CCC(=O)O)[C@H]1CC[C@H]2[C@@H]3CC[C@@H]4C[C@H](O)CC[C@]4(C)[C@H]3CC[C@]12C,40 µg/mL,Dose-dependent effect,,,"hemolysis at 1 h, 1e-05 mg/mL [5]: 5%; Activity [6]: Toxic; Activity [7]: Toxic"
CN1CCC[C@H]1c1cccnc1.C[C@H](CCC(=O)O)[C@H]1CC[C@H]2[C@@H]3[C@H](O)C[C@@H]4C[C@H](O)CC[C@]4(C)[C@H]3C[C@H](O)[C@]12C,,,Non-toxic,,
CN1CCC[C@H]1c1cccnc1.C[C@H](CCC(=O)O)[C@H]1CC[C@H]2[C@@H]3CC[C@@H]4C[C@H](O)CC[C@]4(C)[C@H]3C[C@H](O)[C@]12C,,Dose-dependent effect,Non-toxic,Toxic,"hemolysis at 1 h, 0.63 mg/mL [8]: 5%; hemolysis at 1 h, 1e-05 mg/mL [5]: 12.4%"
CN1C(=[Se])CC[C@H]1c1cccnc1.C[C@H](CCC(=O)O)[C@H]1CC[C@H]2[C@@H]3CC[C@@H]4C[C@H](O)CC[C@]4(C)[C@H]3CC[C@]12C,180 µg/mL,Dose-dependent effect,,,"hemolysis at 1 h, 0.006 mg/mL [10]: 5%; Activity [6]: Toxic"
CN1CCC[C@H]1c1cccnc1.C[C@H](CCC(=O)O)[C@H]1CC[C@H]2[C@@H]3CC[C@@H]4C[C@H](O)CC[C@]4(C)[C@H]3CC[C@]12C,200 µg/mL,Dose-dependent effect,,Toxic,"hemolysis at 1 h, 0.007 mg/mL [11]: 5%; hemolysis at 1 h, 1e-05 mg/mL [5]: 16.7%"
CN1C(=[Se])CC[C@H]1c1cccnc1,,,Non-toxic,,Activity [12]: Non-toxic
CN1C(=S)CC[C@H]1c1cccnc1,,,Non-toxic,,Activity [12]: Non-toxic
C[C@H](CCC(=O)O)[C@H]1CC[C@H]2[C@@H]3[C@H](O)C[C@@H]4C[C@H](O)CC[C@]4(C)[C@H]3C[C@H](O)[C@]12C [CHOLIC ACID],,,Non-toxic,,"hemolysis at 1 h, 0.75 mg/mL [13]: 5%"
C[C@H](CCC(=O)O)[C@H]1CC[C@H]2[C@@H]3CC[C@@H]4C[C@H](O)CC[C@]4(C)[C@H]3CC[C@]12C [LITHOCHOLIC ACID],9 µg/mL,,,Toxic,"hemolysis at 1 h, 0.0001 mg/mL [14]: 5%"
CN1CCC[C@H]1c1cccnc1 [NICOTINE],,,Non-toxic,,Activity [12]: Non-toxic
C[C@H](CCC(=O)O)[C@H]1CC[C@H]2[C@@H]3CC[C@@H]4C[C@H](O)CC[C@]4(C)[C@H]3C[C@H](O)[C@]12C [SODIUM DEOXYCHOLATE],,,,Toxic,"hemolysis at 1 h, 0.17 mg/mL [15]: 5%"

# — ChEMBL document CHEMBL3112578, “Synthesis and haemolytic activity of novel salts made of nicotine alkaloids and bile acids” (Bioorg Med Chem Lett, 2014)
